From patent US8735384B2, “Amino heteroaryl compounds as beta-secretase modulators and methods of use” (Amgen Inc., priority 2010, dated 2014)

Tests used:
BACE1 = BACE1 (Homo sapiens, UniProt P56817); assay: In vitro enzymatic BACE FRET assay; format: biochemical; conditions: beta secretase enzyme 0.2 nM, FRET substrate 50 nM, pH 4.2; read-out: BACE1 FRET assay (IC50 class)
How it was run: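 Beta-secretase (0.2 nM) was pre-incubated 1 h with serially diluted inhibitor in 0.05 M acetate pH 4.2, 10% DMSO, 100 uM genapol. Then 50 nM quenched peptide FRET substrate was added for 1 h. The reaction was stopped with Tris to neutral pH and fluorescence read ([…]).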

[1] = test system: Aβ40 in conditioned medium of cells stably expressing Amyloid Precursor Protein (APP); assay: In vitro BACE cell-based assay (HEK cell assay), Aβ40 sandwich ELISA; conditions: Homo sapiens, HEK293, 24 h, inhibition of Aβ40, 24 h incubation, read-out: HEK cell assay (IC50 class)
How it was run: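 APP-stably expressing cells (40K/well) grown 24 h, then treated 24 h with 10-point doses from 100 μM or 10 μM top (0.1% DMSO). Secreted Aβ40 quantified by sandwich ELISA (pAb40 capture, biotinylated 6E10 detection, europium time-resolved fluorescence); IC50 from percent inhibition versus concentration.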

Sequence of BACE1 (P56817 46-501, species assumed): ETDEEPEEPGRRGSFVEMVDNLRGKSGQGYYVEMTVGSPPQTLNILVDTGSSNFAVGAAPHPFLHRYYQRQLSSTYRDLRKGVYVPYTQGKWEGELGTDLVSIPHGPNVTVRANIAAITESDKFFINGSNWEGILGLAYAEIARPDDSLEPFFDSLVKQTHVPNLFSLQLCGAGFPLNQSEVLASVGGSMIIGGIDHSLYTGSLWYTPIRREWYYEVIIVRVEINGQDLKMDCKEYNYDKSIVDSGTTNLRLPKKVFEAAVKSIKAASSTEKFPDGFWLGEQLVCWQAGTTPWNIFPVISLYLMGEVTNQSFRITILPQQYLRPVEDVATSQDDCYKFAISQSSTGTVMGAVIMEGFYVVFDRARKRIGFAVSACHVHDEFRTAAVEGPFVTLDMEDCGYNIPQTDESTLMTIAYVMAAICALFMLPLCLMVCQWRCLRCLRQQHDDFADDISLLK

| SMILES | IC50 (BACE1) | IC50 [1] |
| --- | --- | --- |
| CCN(C)C(=O)c1cccc(C)c1-c1ccc2nc(N)c(N3CCOCC3)cc2c1 [Example 121, 2-(2-amino-3-morpholinoquinolin-6-yl)-N-ethyl-N,3-dimethylbenzamide] | 100 to 500 nM | 1010 to 5000 nM |
| Cc1cccc(C(=O)N(C)c2ccccc2)c1-c1ccc2nc(N)c(N3CCOCC3)cc2c1 [Example 126, 2-(2-amino-3-morpholinoquinolin-6-yl)-N,3-dimethyl-N-phenylbenzamide] | 100 to 500 nM | 1010 to 5000 nM |
| Cc1cccc(C(=O)Nc2ccccc2)c1-c1ccc2nc(N)c(N3CCOCC3)cc2c1 [Example 127, 2-(2-amino-3-morpholinoquinolin-6-yl)-3-methyl-N-phenylbenzamide] | 1010 to 5000 nM | > 5000 nM |
| Nc1nc2ccc(-c3ccc(F)cc3C(=O)N3CCC3)cc2cc1N1CCOCC1 [Example 128, (2-(2-amino-3-morpholinoquinolin-6-yl)-5-fluorophenyl)(azetidin-1-yl)methanone] | 1010 to 5000 nM | > 5000 nM |
| CCOC(=O)c1cc(F)cc(C)c1-c1ccc2nc(N)c(N3CCOCC3)cc2c1 [Example 129, ethyl 2-(2-amino-3-morpholinoquinolin-6-yl)-5-fluoro-3-methylbenzoate] | 100 to 500 nM | 1010 to 5000 nM |
| Cc1cccc(C(=O)N(C)C)c1-c1ccc2nc(N)c(N3CCOCC3)cc2c1 [Example 134, 2-(2-amino-3-morpholinoquinolin-6-yl)-N,N,3-trimethylbenzamide] | 100 to 500 nM | 1010 to 5000 nM |
| Cc1cccc(C(=O)N(C)Cc2cccc3ccccc23)c1-c1ccc2nc(N)c(N3CCOCC3)cc2c1 [Example 135, 2-(2-amino-3-morpholinoquinolin-6-yl)-N,3-dimethyl-N-(naphthalen-1-ylmethyl)benzamide] | 100 to 500 nM | 1010 to 5000 nM |
| Cc1cccc(C(=O)N(C)Cc2ccccc2)c1-c1ccc2nc(N)c(N3CCOCC3)cc2c1 [Example 136, 2-(2-amino-3-morpholinoquinolin-6-yl)-N-benzyl-N,3-dimethylbenzamide] | 100 to 500 nM | 1010 to 5000 nM |
| Cc1cccc(C(=O)N(C)CCc2ccccc2)c1-c1ccc2nc(N)c(N3CCOCC3)cc2c1 [Example 137, 2-(2-amino-3-morpholinoquinolin-6-yl)-N,3-dimethyl-N-phenethylbenzamide] | 100 to 500 nM | 1010 to 5000 nM |
| Cc1cccc(C(=O)N(C)c2ccc(F)cc2)c1-c1ccc2nc(N)c(N3CCOCC3)cc2c1 [Example 138, 2-(2-amino-3-morpholinoquinolin-6-yl)-N-(4-fluorophenyl)-N,3-dimethylbenzamide] | 100 to 500 nM | 1010 to 5000 nM |
| Nc1nc2cc(F)c(-c3ccccc3C(=O)N3CCCC3)cc2cc1N1CCOCC1 [Example 140, (2-(2-amino-7-fluoro-3-morpholinoquinolin-6-yl)phenyl)(pyrrolidin-1-yl)methanone] | 100 to 500 nM | 1010 to 5000 nM |
| Nc1nc2ccc(-c3cccc(Cl)c3C(=O)N3CCCC3)cc2cc1N1CCOCC1 [Example 141, (2-(2-amino-3-morpholinoquinolin-6-yl)-6-chlorophenyl)(pyrrolidin-1-yl)methanone] | 1010 to 5000 nM | > 5000 nM |
| Nc1nc2ccc(-c3cccc(F)c3C(=O)N3CCCC3)cc2cc1N1CCOCC1 [Example 142, (2-(2-amino-3-morpholinoquinolin-6-yl)-6-fluorophenyl)(pyrrolidin-1-yl)methanone] | 1010 to 5000 nM | > 5000 nM |
| Nc1nc2ccc(-c3c(Cl)cccc3C(=O)N3CCOCC3)cc2cc1N1CCOCC1 [Example 144, (2-(2-amino-3-morpholinoquinolin-6-yl)-3-chlorophenyl)(morpholino)methanone] | 100 to 500 nM | 1010 to 5000 nM |
| Nc1nc2ccc(-c3ccccc3C(=O)N3CCCC3)cc2cc1N1CCOCC1 [Example 146, (2-(2-amino-3-morpholinoquinolin-6-yl)phenyl)(pyrrolidin-1-yl)methanone] | 100 to 500 nM | 1010 to 5000 nM |
| Nc1nc2ccc(-c3ccc(Cl)cc3C(=O)N3CCCC3)cc2cc1N1CCOCC1 [Example 147, (2-(2-amino-3-morpholinoquinolin-6-yl)-5-chlorophenyl)(pyrrolidin-1-yl)methanone] | 100 to 500 nM | 1010 to 5000 nM |
| Nc1nc2ccc(-c3c(F)cccc3C(=O)N3CCCC3)cc2cc1N1CCOCC1 [Example 148, (2-(2-amino-3-morpholinoquinolin-6-yl)-3-fluorophenyl)(pyrrolidin-1-yl)methanone] | 100 to 500 nM | 1010 to 5000 nM |
| Nc1nc2ccc(-c3ccccc3C(=O)C3CCCC3)cc2cc1N1CCOCC1 [Example 149, (2-(2-amino-3-morpholinoquinolin-6-yl)phenyl)(cyclopentyl)methanone] | 100 to 500 nM | > 5000 nM |
| Nc1nc2ccc(-c3ccccc3C(=O)c3ccccc3)cc2cc1N1CCOCC1 [Example 151, (2-(2-amino-3-morpholinoquinolin-6-yl)phenyl)(phenyl)methanone] | 100 to 500 nM | 1010 to 5000 nM |
| Nc1nc2ccc(-c3ccccc3C(=O)C3CCCCC3)cc2cc1N1CCOCC1 [Example 152, (2-(2-amino-3-morpholinoquinolin-6-yl)phenyl)(cyclohexyl)methanone] | < 100 nM | 1010 to 5000 nM |
| CC(C)(C)CC(=O)c1ccccc1-c1ccc2nc(N)c(N3CCOCC3)cc2c1 [Example 153, 1-(2-(2-amino-3-morpholinoquinolin-6-yl)phenyl)-3,3-dimethylbutan-1-one] | 100 to 500 nM | > 5000 nM |
| Nc1nc2ccc(-c3cc(Cl)ccc3C(=O)N3CCCC3)cc2cc1N1CCOCC1 [Example 154, (2-(2-amino-3-morpholinoquinolin-6-yl)-4-chlorophenyl)(pyrrolidin-1-yl)methanone] | < 100 nM | 501 to 1000 nM |
| Nc1nc2ccc(-c3c(C(=O)N4CCCC4)cccc3C(F)(F)F)cc2cc1N1CCOCC1 [Example 155, (2-(2-amino-3-morpholinoquinolin-6-yl)-3-(trifluoromethyl)phenyl)(pyrrolidin-1-yl)methanone] | 100 to 500 nM | 1010 to 5000 nM |

Further lines, results first:

| IC50 (BACE1) | IC50 [1] | SMILES |
| --- | --- | --- |
| < 100 nM | 501 to 1000 nM | Cc1cccc(C(=O)N(C)C2CCC(C)CC2)c1-c1ccc2nc(N)c(N3CCOCC3)cc2c1 (stereo not shown) [Example 122, 2-(2-amino-3-morpholinoquinolin-6-yl)-N,3-dimethyl-N-(4-methylcyclohexyl)benzamide] |
| < 100 nM | 501 to 1000 nM | Cc1cccc(C(=O)N(C)C(C)(C)C)c1-c1ccc2nc(N)c(N3CCOCC3)cc2c1 [Example 123, 2-(2-amino-3-morpholinoquinolin-6-yl)-N-tert-butyl-N,3-dimethylbenzamide] |
| < 100 nM | 1010 to 5000 nM | Cc1cccc(C(=O)N2C(C)CCCC2C)c1-c1ccc2nc(N)c(N3CCOCC3)cc2c1 (stereo not shown) [Example 124, (2-(2-amino-3-morpholinoquinolin-6-yl)-3-methylphenyl)(2,6-dimethylpiperidin-1-yl)methanone] |
| < 100 nM | 501 to 1000 nM | Cc1cccc(C(=O)N2C(C)C=CC2C)c1-c1ccc2nc(N)c(N3CCOCC3)cc2c1 (stereo not shown) [Example 125, (2-(2-amino-3-morpholinoquinolin-6-yl)-3-methylphenyl)(2,5-dimethyl-2,5-dihydro-1H-pyrrol-1-yl)methanone] |
| < 100 nM | 100 to 500 nM | Cc1cc(F)cc(C(=O)N2CC[C@@H](F)C2)c1-c1ccc2nc(N)c(N3CCOCC3)cc2c1 [Example 130, (R)-(2-(2-amino-3-morpholinoquinolin-6-yl)-5-fluoro-3-methylphenyl)(3-fluoropyrrolidin-1-yl)methanone] |
| < 100 nM | 1010 to 5000 nM | Cc1ccc(N(C)C(=O)c2cccc(C)c2-c2ccc3nc(N)c(N4CCOCC4)cc3c2)cc1 [Example 131, 2-(2-amino-3-morpholinoquinolin-6-yl)-N,3-dimethyl-N-p-tolylbenzamide] |
| < 100 nM | 501 to 1000 nM | COc1ccc(N(C)C(=O)c2cccc(C)c2-c2ccc3nc(N)c(N4CCOCC4)cc3c2)cc1 [Example 132, 2-(2-amino-3-morpholinoquinolin-6-yl)-N-(4-methoxyphenyl)-N,3-dimethylbenzamide] |
| < 100 nM | 1010 to 5000 nM | Cc1cccc(C(=O)N(C)[C@H](C)c2ccccc2)c1-c1ccc2nc(N)c(N3CCOCC3)cc2c1 [Example 133, (R)-2-(2-amino-3-morpholinoquinolin-6-yl)-N,3-dimethyl-N-(1-phenylethyl)benzamide] |
| < 100 nM | 1010 to 5000 nM | COc1ccccc1N(C)C(=O)c1cccc(C)c1-c1ccc2nc(N)c(N3CCOCC3)cc2c1 [Example 139, 2-(2-amino-3-morpholinoquinolin-6-yl)-N-(2-methoxyphenyl)-N,3-dimethylbenzamide] |
| < 100 nM | 1010 to 5000 nM | Nc1nc2ccc(-c3c(Cl)cccc3C(=O)N3CCCCC3)cc2cc1N1CCOCC1 [Example 143, (2-(2-amino-3-morpholinoquinolin-6-yl)-3-chlorophenyl)(piperidin-1-yl)methanone] |
| < 100 nM | 501 to 1000 nM | Nc1nc2ccc(-c3ccccc3C(=O)OC3CCCC3)cc2cc1N1CCOCC1 [Example 145, cyclopentyl 2-(2-amino-3-morpholinoquinolin-6-yl)benzoate] |
| < 100 nM | 100 to 500 nM | Cc1ccc(C(=O)N2CCCC2)c(-c2ccc3nc(N)c(N4CCOCC4)cc3c2)c1 [Example 150, (2-(2-amino-3-morpholinoquinolin-6-yl)-4-methylphenyl)(pyrrolidin-1-yl)methanone] |
